Reference: patent US20240158367A1, “TRICYCLIC COMPOUND AS HIF2-ALPHA INHIBITOR, PREPARATION METHOD THEREFOR AND APPLICATION THEREOF” (SHANGHAI JEMINCARE PHARMACEUTICALS CO., LTD, priority 2021, published 2024)

Legend:
[1] = tested on: VEGF expression in 786-O cells; assay: VEGF ELISA assay in 786-O cells; format: cell-based; conditions: about 48 hours incubation
Protocol: 100×DMSO stock solution dissolved with the drug was prepared in assay medium (RPMI-1640 containing 2% FBS; FBS: 10099141C, Gibco; RPMI-1640: 12440053, Gibco) to formulate a series of dilutions of 10×compounds. To a clear flat-bottom 96-well plate (3599, Corning) was added 20 μL of the 10×compound dilution. Then approximately 40,000 786-O cells (ATCC®CRL-1932™) in 180 μL of culture medium were seeded into the 96-well plate. The final concentration of DMSO (D2650, Sigma) in each well was 0.1%. After incubating in the incubator for about 48 hours, 100 μL of the upper medium from each well was pipetted and placed in a new 96-well plate (3799, Corning). An ELISA kit (DY293B, R&D Systems) was used. The concentration of VEGF was determined according to the OD value of each well at […] detected by a microplate reader. EC50 values were calculated by GraphPad Prism software using the dose-response-inhibition (four parameter) equation.

[2] = tested on: HIF response element(HRE)-dependent luciferase in 786-O-HRE-Luc cells; assay: Luciferase assay in 786-O-HRE-Luc cells; format: cell-based; conditions: approximately 24 hours incubation
Protocol: 786-O-HRE-Luc cells were obtained by infecting 786-O (ATCC®CRL-1932™) cells purchased from ATCC with commercial lentivirus. Appropriate 786-O-HRE-Luc single cell clones were screened, expanded, and used for the subsequent luciferase assay. For the luciferase assay, 100×DMSO stock solution dissolved with the drug was prepared in assay medium (RPMI-1640 containing 2% FBS; FBS: 10099141C, Gibco; RPMI-1640: 12440053, Gibco) to formulate a series of dilutions of 10×compounds. To a clear flat-bottom 96-well plate (3599, Corning) was added 20 μL of the 10×compound dilution. Then approximately 100,000 786-O-HRE-Luc cells in 180 μL of culture medium were seeded into the 96-well plate. The final concentration of DMSO (D2650, Sigma) in each well was 0.1%. After approximately 24 hours of incubation in the incubator, luciferase activity was determined using the Dual-Luciferase Reporter Assay System (E1960, Promega) reagent following the manufacturer's recommended method. EC50 values were calculated by GraphPad Prism software using the dose-response-inhibition (four parameter) equation.

[3] = Pharmacokinetic test in SD rats by gavage
Protocol: animals: SD rats, male, 200 to 220 g, purchased from Shanghai Jiesijie Laboratory Animal Co., Ltd.
The SD rats in each test compound group (3 rats in each group) were fasted overnight and then intragastrically administered the compounds (PO, administration dosage of 10 mg/kg or 5 mg/kg, administration volume of 10 mL/kg), and given food 4 hours after administration.
Approximately 0.2 mL of blood was collected from the jugular vein before administration and 0.083 hours, 0.25 hours, 0.5 hours, 1 hour, 2 hours, 4 hours, 6 hours, 8 hours, and 24 hours after administration, anticoagulated with sodium heparin. Blood samples were placed on ice after collection, and plasma was separated by centrifugation (centrifugation conditions: 1500 g, 10 minutes). The collected plasma was stored at −40° C. to −20° C. before analysis.
LC-MS/MS was used to determine the content of the test compound in rat plasma after intragastric administration.

[4] = SD rats, male, PO 10 mg/kg, plasma
[5] = male, SD, rat, in vivo, po, 5 mg/kg

Compound `N=S1(=O)c2ccc(Oc3cc(F)cc(Cl)c3)c3c2C(O)(CC3F)C1(F)F` (centres unmarked) [Compound 1] has an EC50 [1] of 115 nM.
Compound `N#Cc1cc(F)cc(Oc2ccc3c4c2C(F)CC4(O)C(F)(F)S3(=N)=O)c1` (centres unmarked) [Compound 2] has an EC50 [2] of 46 nM.
`N#Cc1cncc(Oc2ccc3c4c2[C@@H](F)[C@H](F)[C@]4(O)C(F)(F)S3(=O)=O)c1` [Compound 3-P1] gave an EC50 [2] of 67.7 nM and an EC50 [1] of 180 nM.
With `N#Cc1cncc(Oc2ccc3c4c2[C@H](F)[C@@H](F)[C@@]4(O)C(F)(F)S3(=O)=O)c1` [Compound 3-P2] the EC50 [2] was 3990 nM and the EC50 [1] was 2760 nM.
With `N#Cc1cncc(Oc2ccc3c4c2[C@@H](F)[C@@H](F)[C@]4(O)C(F)(F)S3(=O)=O)c1` [Compound 3-P3] the EC50 [2] was 12.2 nM, the EC50 [1] was 30.9 nM and the “Plasma concentration and area under the curve compared with comparative example PT2385” value ([3]; SD rats, PO, 10 mg/kg vs PT2385 5 mg/kg) was “significantly improved plasma concentration and area under the curve”. The “Area under the curve AUC0-∞” value [3, 4] was 24806 ng·h/mL and the “Plasma concentration Cmax” value [3, 4] was 4646 ng/mL.
With `N#Cc1cncc(Oc2ccc3c4c2[C@H](F)[C@H](F)[C@@]4(O)C(F)(F)S3(=O)=O)c1` [Compound 3-P4] the EC50 [2] was 6410 nM and the EC50 [1] was 4920 nM.
Compound `N#Cc1cc(F)cc(Oc2ccc3c4c2[C@@H](F)[C@H](F)[C@]4(O)C(F)(F)S3(=O)=O)c1` [Compound 4-P1] has an EC50 [2] of 19.2 nM and an EC50 [1] of 40.5 nM.
`N#Cc1cc(F)cc(Oc2ccc3c4c2[C@H](F)[C@@H](F)[C@@]4(O)C(F)(F)S3(=O)=O)c1` [Compound 4-P2] showed an EC50 [2] of 48.5 nM and an EC50 [1] of 54.4 nM.
For `N#Cc1cc(F)cc(Oc2ccc3c4c2[C@@H](F)[C@@H](F)[C@]4(O)C(F)(F)S3(=O)=O)c1` [Compound 4-P3], the EC50 [2] was 6.1 nM and the EC50 [1] was 15.2 nM.
For `N#Cc1cc(F)cc(Oc2ccc3c4c2[C@H](F)[C@H](F)[C@@]4(O)C(F)(F)S3(=O)=O)c1` [Compound 4-P4], the EC50 [2] was 511 nM and the EC50 [1] was 737 nM.
With `CS(=O)(=O)c1ccc(Oc2cc(F)cc(C#N)c2)c2c1[C@H](O)C(F)(F)C2` [PT2385, reference compound] the AUC(0-inf) [3, 5] was 843 ng·h/mL and the Cmax [3, 5] was 193 ng/mL.
